Data taken from the supplement of paper PMC10307832.

Tests used:
Experiment in all cases: relative viability (nuclei count vs DMSO), 5 days (fraction); higher = more cells survive
Carboplatin + Bortezomib = compound: C1CC(C1)(C(=O)O)C(=O)O.[NH2-].[NH2-].[Pt+2] [Carboplatin] + CC(C)C[C@H](NC(=O)[C@H](Cc1ccccc1)NC(=O)c1cnccn1)B(O)O [Bortezomib] (partner 0.002 µM)
In short: (§1)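 Cells from lung cancer lines were seeded into 1536-well plates and, one day later, dosed by pin tool. Treatments were either a single drug or a fixed dose of an anchor drug with five library-drug doses (not always all listed) in √10 steps. After 5 days, nuclei were stained in a one-step fixation (final 0.05% Triton X-100, 1% formaldehyde, 1 ug/ml Hoechst) and counted on 4× images, and relative viability is the treated-to-vehicle nuclei ratio, as the median of duplicate plates.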

MLN4924 + Trametinib = compound: NS(=O)(=O)OC[C@@H]1C[C@@H](n2ccc3c(N[C@H]4CCc5ccccc54)ncnc32)C[C@@H]1O [MLN4924] + CC(=O)Nc1cccc(-n2c(=O)n(C3CC3)c(=O)c3c(Nc4ccc(I)cc4F)n(C)c(=O)c(C)c32)c1 [Trametinib] (partner 0.02 µM)
In short: as §1

Carboplatin + Luminespib = compound: C1CC(C1)(C(=O)O)C(=O)O.[NH2-].[NH2-].[Pt+2] [Carboplatin] + CCNC(=O)c1noc(-c2cc(C(C)C)c(O)cc2O)c1-c1ccc(CN2CCOCC2)cc1 [Luminespib] (partner 0.01 µM)
In short: as §1

Carboplatin + Pictilisib = compound: C1CC(C1)(C(=O)O)C(=O)O.[NH2-].[NH2-].[Pt+2] [Carboplatin] + CS(=O)(=O)N1CCN(Cc2cc3nc(-c4cccc5[nH]ncc45)nc(N4CCOCC4)c3s2)CC1 [Pictilisib] (partner 1 µM)
In short: as §1

Cell Line | relative viability (Carboplatin + Bortezomib; first compound 0.08 µM) | relative viability (Carboplatin + Bortezomib; first compound 0.253 µM) | relative viability (Carboplatin + Bortezomib; first compound 0.8 µM) | relative viability (Carboplatin + Bortezomib; first compound 2.53 µM) | relative viability (Carboplatin + Bortezomib; first compound 8 µM) | relative viability (MLN4924 + Trametinib; first compound 0.04 µM) | relative viability (MLN4924 + Trametinib; first compound 0.1265 µM) | relative viability (MLN4924 + Trametinib; first compound 0.4 µM) | relative viability (MLN4924 + Trametinib; first compound 1.265 µM) | relative viability (MLN4924 + Trametinib; first compound 4 µM) | relative viability (Carboplatin + Luminespib; first compound 0.08 µM) | relative viability (Carboplatin + Luminespib; first compound 0.253 µM) | relative viability (Carboplatin + Luminespib; first compound 0.8 µM) | relative viability (Carboplatin + Luminespib; first compound 2.53 µM) | relative viability (Carboplatin + Luminespib; first compound 8 µM) | relative viability (Carboplatin + Pictilisib; first compound 0.08 µM) | relative viability (Carboplatin + Pictilisib; first compound 0.253 µM) | relative viability (Carboplatin + Pictilisib; first compound 0.8 µM) | relative viability (Carboplatin + Pictilisib; first compound 2.53 µM) | relative viability (Carboplatin + Pictilisib; first compound 8 µM)
LC-2-ad | 1.09 | 1.1 | 1.11 | 0.985 | 0.831 | 0.95 | 0.827 | 0.701 | 0.541 | 0.305 | 1.02 | 1.01 | 0.993 | 0.911 | 0.651 | 0.669 | 0.477 | 0.436 | 0.447 | 0.399
NCI-H647 | 1.03 | 1.24 | 0.952 | 1.07 | 0.686 | 0.576 | 0.538 | 0.25 | 0.0717 | 0.072 | 0.169 | 0.239 | 0.154 | 0.185 | 0.13 | 0.572 | 0.477 | 0.368 | 0.482 | 0.429
NCI-H1734 | 0.97 | 0.885 | 0.921 | 0.888 | 0.849 | 0.705 | 0.715 | 0.181 | 0.123 | 0.126 | 0.21 | 0.236 | 0.193 | 0.188 | 0.174 | 0.51 | 0.47 | 0.487 | 0.451 | 0.424
LOU-NH91 | 0.581 | 0.52 | 0.54 | 0.472 | 0.495 | 0.775 | 0.853 | 0.731 | 0.575 | 0.525 | 0.393 | 0.337 | 0.329 | 0.306 | 0.34 | 0.551 | 0.57 | 0.5 | 0.525 | 0.576
NCI-H441 | 0.239 | 0.777 | 0.618 | 0.459 | 0.364 | 0.576 | 0.508 | 0.598 | 0.152 | 0.19 | 0.387 | 0.28 | 0.266 | 0.295 | 0.234 | 0.56 | 0.588 | 0.414 | 0.492 | 0.433
RERF-LC-KJ | 1.22 | 1.2 | 1.19 | 1.18 | 0.937 | 0.8 | 0.66 | 0.365 | 0.215 | 0.203 | 1.24 | 1.18 | 1.13 | 0.918 | 0.5 | 0.584 | 0.48 | 0.512 | 0.453 | 0.316
H3255 | 0.832 | 0.762 | 0.874 | 0.865 | 0.526 | 0.591 | 0.53 | 0.409 | 0.304 | 0.306 | 1.02 | 1.03 | 0.964 | 0.772 | 0.704 | 0.54 | 0.504 | 0.375 | 0.407 | 0.425
A-427 | 0.984 | 1.11 | 0.904 | 0.905 | 1.01 | 0.612 | 0.477 | 0.334 | 0.271 | 0.263 | 0.934 | 0.928 | 0.928 | 0.803 | 0.976 | 0.773 | 0.768 | 0.629 | 0.694 | 0.732
